# Measured values from ChEMBL document CHEMBL4507276 (2021).
# How the values were obtained:
# [1] = biological target: Serine/threonine-protein kinase TNNI3K (Homo sapiens) (UniProt Q59H18); conditions: Compound concentration 1000.0 nM
# [2] = biological target: Sodium-dependent dopamine transporter (Homo sapiens, UniProt Q01959); test: GPCRScan assay: inhibition of DAT; design: radioligand conc. used [nm] 3.6 – 16.0, parental cells stable HEK
# [3] = species on record: Homo sapiens; test: MLCK Invitrogen selectivity data (BI); conditions: Compound concentration 3.0 uM
# [4] = biological target: Matrix metalloproteinase-9 (Homo sapiens) (UniProt P14780); test: MMP-9 (H) Cerep selectivity data (BI); conditions: Compound concentration 20.0 uM
# Matrix metalloproteinase-9 (Homo sapiens), sequence (P14780 whole entry): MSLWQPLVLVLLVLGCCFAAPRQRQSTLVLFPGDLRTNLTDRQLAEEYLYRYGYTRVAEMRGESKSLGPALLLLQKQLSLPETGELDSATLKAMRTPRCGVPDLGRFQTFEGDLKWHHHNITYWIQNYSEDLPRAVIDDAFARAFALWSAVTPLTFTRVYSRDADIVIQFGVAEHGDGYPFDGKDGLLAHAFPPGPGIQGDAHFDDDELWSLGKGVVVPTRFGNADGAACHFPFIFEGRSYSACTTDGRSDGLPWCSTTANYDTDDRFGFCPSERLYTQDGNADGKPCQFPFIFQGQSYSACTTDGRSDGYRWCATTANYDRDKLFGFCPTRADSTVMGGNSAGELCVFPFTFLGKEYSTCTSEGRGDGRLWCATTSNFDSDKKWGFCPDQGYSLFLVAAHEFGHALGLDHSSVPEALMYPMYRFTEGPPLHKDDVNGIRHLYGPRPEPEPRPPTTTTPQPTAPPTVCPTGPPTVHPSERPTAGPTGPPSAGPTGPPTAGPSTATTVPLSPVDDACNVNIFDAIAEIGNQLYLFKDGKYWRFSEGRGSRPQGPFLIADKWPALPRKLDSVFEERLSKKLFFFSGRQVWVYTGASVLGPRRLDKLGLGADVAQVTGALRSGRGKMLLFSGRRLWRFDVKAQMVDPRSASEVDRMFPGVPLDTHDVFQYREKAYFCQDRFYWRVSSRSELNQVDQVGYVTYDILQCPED
# [5] = biological target: Ribosomal protein S6 kinase alpha-4 (Homo sapiens) (UniProt O75676); test: RPS6KA4 Invitrogen selectivity data (BI); conditions: Compound concentration 3.0 uM
# [6] = biological target: T1, Rhodopsin kinase GRK7 (Homo sapiens) (UniProt Q8WTQ7); test: GRK7 Invitrogen selectivity data (BI); conditions: Compound concentration 3.0 uM
# T1 sequence (whole entry): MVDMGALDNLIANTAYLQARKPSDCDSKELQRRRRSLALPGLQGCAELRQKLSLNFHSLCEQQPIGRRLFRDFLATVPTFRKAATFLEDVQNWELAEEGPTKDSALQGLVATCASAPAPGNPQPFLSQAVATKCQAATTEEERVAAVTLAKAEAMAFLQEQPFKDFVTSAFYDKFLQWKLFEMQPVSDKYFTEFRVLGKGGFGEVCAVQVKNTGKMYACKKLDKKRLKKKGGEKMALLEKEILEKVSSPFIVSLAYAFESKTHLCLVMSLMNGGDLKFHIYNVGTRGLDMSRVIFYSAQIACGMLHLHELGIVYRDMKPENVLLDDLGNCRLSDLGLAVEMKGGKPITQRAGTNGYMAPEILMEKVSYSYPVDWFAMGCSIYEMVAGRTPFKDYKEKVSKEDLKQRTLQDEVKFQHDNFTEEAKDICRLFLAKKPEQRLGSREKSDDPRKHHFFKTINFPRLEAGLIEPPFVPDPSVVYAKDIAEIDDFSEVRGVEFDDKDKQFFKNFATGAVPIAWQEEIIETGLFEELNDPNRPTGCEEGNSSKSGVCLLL
# [7] = biological target: 5-hydroxytryptamine receptor 1B (Homo sapiens) (UniProt P28222); conditions: Compound concentration 10.0 uM
# 5-hydroxytryptamine receptor 1B (Homo sapiens), sequence (P28222 whole entry): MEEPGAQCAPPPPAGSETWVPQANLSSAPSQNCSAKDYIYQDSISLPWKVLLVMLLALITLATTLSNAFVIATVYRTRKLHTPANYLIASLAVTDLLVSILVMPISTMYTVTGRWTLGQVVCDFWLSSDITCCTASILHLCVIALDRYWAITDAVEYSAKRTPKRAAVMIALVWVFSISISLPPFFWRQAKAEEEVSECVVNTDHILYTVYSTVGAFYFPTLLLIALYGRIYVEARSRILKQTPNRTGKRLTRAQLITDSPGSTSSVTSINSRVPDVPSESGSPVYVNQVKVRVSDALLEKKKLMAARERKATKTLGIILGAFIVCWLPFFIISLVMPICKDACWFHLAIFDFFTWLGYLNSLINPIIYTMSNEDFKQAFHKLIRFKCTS
# [8] = biological target: Delta-type opioid receptor (Homo sapiens) (UniProt P41143); test: DELTA2/H Cerep selectivity data (BI); conditions: Compound concentration 20.0 uM
# [9] = biological target: Tyrosine-protein kinase Blk (Homo sapiens) (UniProt P51451); test: BLK Invitrogen selectivity data (BI); conditions: Compound concentration 3.0 uM
# [10] = biological target: Endothelin receptor type B (Homo sapiens) (UniProt P24530); test: ETB/H Cerep selectivity data (BI); conditions: Compound concentration 20.0 uM
# Endothelin receptor type B (Homo sapiens), sequence (P24530 whole entry): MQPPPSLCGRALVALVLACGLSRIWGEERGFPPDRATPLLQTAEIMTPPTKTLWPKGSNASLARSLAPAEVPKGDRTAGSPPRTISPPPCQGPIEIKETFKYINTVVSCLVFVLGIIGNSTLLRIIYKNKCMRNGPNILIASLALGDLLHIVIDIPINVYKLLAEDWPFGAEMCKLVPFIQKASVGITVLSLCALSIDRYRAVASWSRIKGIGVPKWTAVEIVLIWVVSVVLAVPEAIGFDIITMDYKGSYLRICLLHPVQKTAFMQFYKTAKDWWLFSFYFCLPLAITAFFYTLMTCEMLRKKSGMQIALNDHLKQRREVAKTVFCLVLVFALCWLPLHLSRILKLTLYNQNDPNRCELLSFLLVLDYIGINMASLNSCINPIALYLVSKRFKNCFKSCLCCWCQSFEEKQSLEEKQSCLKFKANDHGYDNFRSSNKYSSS
# [11] = biological target: Ribosomal protein S6 kinase alpha-6 (Homo sapiens) (UniProt Q9UK32); test: RPS6KA6 Invitrogen selectivity data (BI); conditions: Compound concentration 3.0 uM
# Ribosomal protein S6 kinase alpha-6 (Homo sapiens), sequence (Q9UK32 whole entry): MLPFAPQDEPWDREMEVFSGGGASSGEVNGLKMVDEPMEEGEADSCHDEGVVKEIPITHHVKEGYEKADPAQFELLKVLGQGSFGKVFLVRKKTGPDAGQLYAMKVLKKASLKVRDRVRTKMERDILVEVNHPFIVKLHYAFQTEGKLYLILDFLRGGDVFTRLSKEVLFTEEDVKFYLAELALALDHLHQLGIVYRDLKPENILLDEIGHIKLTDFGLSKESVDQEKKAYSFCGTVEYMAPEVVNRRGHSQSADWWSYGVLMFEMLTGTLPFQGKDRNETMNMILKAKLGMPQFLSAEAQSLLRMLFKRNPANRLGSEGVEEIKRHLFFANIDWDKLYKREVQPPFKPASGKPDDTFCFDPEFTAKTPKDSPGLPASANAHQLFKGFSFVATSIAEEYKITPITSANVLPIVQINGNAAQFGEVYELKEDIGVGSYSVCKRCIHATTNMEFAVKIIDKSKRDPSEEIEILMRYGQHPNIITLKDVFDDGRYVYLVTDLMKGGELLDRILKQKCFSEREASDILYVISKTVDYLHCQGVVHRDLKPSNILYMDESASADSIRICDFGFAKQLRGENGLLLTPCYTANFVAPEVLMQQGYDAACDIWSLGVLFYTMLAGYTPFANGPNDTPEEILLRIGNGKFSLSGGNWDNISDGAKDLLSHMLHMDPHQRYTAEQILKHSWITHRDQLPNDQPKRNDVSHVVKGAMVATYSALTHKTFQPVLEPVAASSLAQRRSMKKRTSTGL
# [12] = biological target: T2, Serine/threonine-protein kinase Sgk1 (Homo sapiens) (UniProt O00141); test: SGK Invitrogen selectivity data (BI); conditions: Compound concentration 3.0 uM
# T2 sequence (whole entry): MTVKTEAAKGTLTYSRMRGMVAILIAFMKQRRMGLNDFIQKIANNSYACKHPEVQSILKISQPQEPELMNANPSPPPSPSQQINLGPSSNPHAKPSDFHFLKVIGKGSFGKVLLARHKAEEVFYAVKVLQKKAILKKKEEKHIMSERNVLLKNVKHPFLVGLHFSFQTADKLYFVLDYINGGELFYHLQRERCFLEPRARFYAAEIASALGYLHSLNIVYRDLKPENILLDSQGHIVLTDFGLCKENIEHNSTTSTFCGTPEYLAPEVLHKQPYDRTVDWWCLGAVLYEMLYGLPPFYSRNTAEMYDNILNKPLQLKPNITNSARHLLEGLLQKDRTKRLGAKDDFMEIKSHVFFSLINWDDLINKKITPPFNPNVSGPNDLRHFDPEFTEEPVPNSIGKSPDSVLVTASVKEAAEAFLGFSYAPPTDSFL
# [13] = biological target: Protein kinase C theta type (Homo sapiens) (UniProt Q04759); test: PRKCQ Invitrogen selectivity data (BI); conditions: Compound concentration 3.0 uM
# Protein kinase C theta type (Homo sapiens), sequence (Q04759 whole entry, looked up): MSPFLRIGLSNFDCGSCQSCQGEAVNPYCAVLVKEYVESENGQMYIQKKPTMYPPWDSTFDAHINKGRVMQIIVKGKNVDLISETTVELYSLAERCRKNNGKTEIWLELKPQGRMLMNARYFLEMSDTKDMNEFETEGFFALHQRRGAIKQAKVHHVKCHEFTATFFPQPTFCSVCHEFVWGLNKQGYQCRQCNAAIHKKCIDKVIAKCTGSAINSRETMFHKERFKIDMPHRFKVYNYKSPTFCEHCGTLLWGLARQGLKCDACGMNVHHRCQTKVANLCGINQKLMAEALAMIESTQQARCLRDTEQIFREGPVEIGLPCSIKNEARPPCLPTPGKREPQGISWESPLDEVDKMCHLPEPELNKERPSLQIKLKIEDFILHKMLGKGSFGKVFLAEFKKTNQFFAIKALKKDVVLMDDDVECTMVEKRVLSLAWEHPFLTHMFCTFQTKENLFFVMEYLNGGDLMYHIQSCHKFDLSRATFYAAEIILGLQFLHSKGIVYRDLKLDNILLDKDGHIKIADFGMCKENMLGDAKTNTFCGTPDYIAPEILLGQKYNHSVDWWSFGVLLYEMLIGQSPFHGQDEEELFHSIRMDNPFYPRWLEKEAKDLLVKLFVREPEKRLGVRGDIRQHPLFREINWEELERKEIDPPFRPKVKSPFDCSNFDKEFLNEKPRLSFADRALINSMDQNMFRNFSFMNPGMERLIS
# [14] = biological target: T3, cGMP-dependent protein kinase 1 (Homo sapiens) (UniProt Q13976); test: PRKG1 Invitrogen selectivity data (BI); conditions: Compound concentration 3.0 uM
# T3 sequence (whole entry): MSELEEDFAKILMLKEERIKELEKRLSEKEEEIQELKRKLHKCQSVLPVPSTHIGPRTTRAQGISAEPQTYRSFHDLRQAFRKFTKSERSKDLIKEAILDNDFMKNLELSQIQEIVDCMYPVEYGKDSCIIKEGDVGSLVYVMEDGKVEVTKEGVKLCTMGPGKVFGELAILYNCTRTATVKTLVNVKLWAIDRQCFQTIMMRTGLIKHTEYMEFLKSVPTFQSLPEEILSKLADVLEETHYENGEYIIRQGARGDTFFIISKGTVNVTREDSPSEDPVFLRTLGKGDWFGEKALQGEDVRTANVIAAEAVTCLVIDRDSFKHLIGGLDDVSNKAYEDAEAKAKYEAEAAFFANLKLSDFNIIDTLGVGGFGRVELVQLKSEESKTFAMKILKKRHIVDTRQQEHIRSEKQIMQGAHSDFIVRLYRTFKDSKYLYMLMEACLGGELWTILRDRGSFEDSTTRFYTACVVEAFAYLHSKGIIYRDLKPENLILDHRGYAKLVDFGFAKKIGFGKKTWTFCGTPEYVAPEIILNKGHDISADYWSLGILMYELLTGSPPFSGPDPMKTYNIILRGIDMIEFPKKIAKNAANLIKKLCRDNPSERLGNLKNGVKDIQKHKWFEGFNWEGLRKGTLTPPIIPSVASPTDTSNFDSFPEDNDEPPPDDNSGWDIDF
# [15] = biological target: Focal adhesion kinase 1 (Homo sapiens) (UniProt Q05397); test: PTK2 Invitrogen selectivity data (BI); conditions: Compound concentration 3.0 uM
# [16] = biological target: Nociceptin receptor (Homo sapiens) (UniProt P41146); test: ORL1/H Cerep selectivity data (BI); conditions: Compound concentration 20.0 uM
# [17] = biological target: T4, Dual specificity mitogen-activated protein kinase kinase 6 (Homo sapiens) (UniProt P52564); test: MAP2K6_S_T_E Invitrogen selectivity data (BI); conditions: Compound concentration 3.0 uM
# T4 sequence (whole entry): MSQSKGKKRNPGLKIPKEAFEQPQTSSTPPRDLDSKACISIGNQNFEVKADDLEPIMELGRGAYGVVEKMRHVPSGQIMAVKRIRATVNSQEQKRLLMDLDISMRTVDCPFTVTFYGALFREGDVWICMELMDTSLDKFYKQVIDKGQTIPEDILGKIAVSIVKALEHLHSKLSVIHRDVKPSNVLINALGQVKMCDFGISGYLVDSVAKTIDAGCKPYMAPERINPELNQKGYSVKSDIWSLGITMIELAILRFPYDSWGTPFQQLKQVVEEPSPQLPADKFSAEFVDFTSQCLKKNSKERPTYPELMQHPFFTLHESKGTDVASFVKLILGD
# [18] = biological target: Tyrosine-protein kinase JAK2 (Homo sapiens) (UniProt O60674); test: JAK2 Invitrogen selectivity data (BI); conditions: Compound concentration 3.0 uM
# Tyrosine-protein kinase JAK2 (Homo sapiens), sequence (O60674 whole entry): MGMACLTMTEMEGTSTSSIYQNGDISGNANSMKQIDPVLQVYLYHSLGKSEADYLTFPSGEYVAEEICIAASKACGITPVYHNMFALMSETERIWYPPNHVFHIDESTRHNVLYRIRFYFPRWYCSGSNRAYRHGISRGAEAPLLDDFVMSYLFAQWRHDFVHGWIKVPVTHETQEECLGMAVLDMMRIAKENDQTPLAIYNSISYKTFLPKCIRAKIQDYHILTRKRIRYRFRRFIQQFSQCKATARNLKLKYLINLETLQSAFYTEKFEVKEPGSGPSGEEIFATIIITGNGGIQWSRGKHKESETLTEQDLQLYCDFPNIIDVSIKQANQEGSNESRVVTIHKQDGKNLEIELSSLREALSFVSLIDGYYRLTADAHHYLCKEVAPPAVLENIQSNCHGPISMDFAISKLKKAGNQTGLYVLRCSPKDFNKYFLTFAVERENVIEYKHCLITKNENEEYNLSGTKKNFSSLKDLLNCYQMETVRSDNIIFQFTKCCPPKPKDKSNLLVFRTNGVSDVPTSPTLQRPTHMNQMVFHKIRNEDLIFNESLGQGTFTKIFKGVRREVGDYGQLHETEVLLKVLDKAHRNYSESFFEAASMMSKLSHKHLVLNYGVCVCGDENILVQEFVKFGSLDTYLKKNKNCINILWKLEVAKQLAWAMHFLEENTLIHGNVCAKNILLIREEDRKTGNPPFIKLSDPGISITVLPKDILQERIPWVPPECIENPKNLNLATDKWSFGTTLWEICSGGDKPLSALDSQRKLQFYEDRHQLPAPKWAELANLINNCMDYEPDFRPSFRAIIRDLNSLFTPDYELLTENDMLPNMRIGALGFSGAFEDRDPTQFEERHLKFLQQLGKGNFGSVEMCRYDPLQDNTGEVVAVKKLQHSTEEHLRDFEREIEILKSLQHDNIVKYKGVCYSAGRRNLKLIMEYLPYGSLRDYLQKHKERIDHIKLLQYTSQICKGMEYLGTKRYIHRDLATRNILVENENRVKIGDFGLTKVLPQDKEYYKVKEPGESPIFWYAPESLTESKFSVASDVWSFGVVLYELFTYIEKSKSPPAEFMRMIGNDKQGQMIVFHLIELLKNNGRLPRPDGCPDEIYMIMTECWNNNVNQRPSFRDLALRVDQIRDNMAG
# Sodium-dependent dopamine transporter, sequence (Q01959 whole entry): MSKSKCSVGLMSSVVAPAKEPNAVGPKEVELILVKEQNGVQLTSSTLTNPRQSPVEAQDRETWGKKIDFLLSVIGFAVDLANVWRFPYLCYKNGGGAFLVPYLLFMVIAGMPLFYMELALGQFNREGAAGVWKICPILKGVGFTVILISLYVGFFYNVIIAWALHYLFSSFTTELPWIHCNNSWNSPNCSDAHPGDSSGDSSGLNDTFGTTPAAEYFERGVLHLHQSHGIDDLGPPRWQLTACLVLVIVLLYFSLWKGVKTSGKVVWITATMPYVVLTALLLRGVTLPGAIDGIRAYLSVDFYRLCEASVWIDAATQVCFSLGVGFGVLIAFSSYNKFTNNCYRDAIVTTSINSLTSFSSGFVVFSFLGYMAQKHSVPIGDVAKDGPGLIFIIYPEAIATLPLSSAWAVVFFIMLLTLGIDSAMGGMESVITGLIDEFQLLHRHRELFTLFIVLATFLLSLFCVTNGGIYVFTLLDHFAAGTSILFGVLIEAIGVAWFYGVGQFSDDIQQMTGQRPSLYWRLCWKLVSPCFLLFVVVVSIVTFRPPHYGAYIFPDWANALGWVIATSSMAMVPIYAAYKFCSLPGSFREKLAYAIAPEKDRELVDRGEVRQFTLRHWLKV
SMILES,residual activity [1] [%],Ki ([2]; read-out: Ki) [nM],Ki ([2]; read-out: pKi (converted)) [nM],residual activity [3] [%],residual activity [4] [%],residual activity [5] [%],residual activity [6] [%],inhibition [7] [%],residual activity [8] [%],residual activity [9] [%],residual activity [10] [%],residual activity [11] [%],residual activity [12] [%],residual activity [13] [%],residual activity [14] [%],residual activity [15] [%],residual activity [16] [%],residual activity [17] [%],residual activity [18] [%]
CN(C)C(=O)Cn1cc(-c2nc(C3(c4ccc(-c5cnc(N)nc5)cc4)CC3)no2)cn1 [BI 0153],100,855,794,,,,,,,,,,,,,,,,
CN(C)C(=O)Cn1cc(-c2nc([C@@](C)(c3ccc(-c4cnc(N)nc4)cc3)C3CC3)no2)cn1 [BI 665915],,,,98,83,103,101,-3.77,100,88.5,109,105,99,93.5,102,87.5,91,100,91
